Experimental findings from US12168012B2, “NLRP3 inflammasome inhibitors” (Novartis AG, priority 2018, dated 2024) are described below.

For the assay, the system named is NLRP3 inflammasome. Briefly: IL-1β secretion assay. The assay is classed as cell-based. Conditions: Homo sapiens, THP-1, 3 h, PMA-differentiated THP-1 cells, 15 μM nigericin, HTRF. How it is done: 10 μL supernatant was removed, and IL-1p levels were monitored using an HTRF assay (CisBio, #62IL1PEC) according to manufacturers' instructions. Viability and pyroptosis was monitored with the addition of PrestoBlue cell viability reagent (Life Technologies, #A13261) directly to the cell culture plate.
IC50 values were calculated from the plot of percentage of inhibition versus the inhibitor concentration by a logistics fit according to: y=A2+(A1−A2)/(1+(x/IC50)^p) where y is the %-inhibition at the inhibitor concentration, x. A1 is the lowest inhibition value, i.e. 0%, and A2 the maximum inhibition value, i.e. 100%. The exponent, p, is the Hill coefficient. The curve fitting was conducted with an internally developed software suite.
NLRP3-dependent IL-1β secretion was stimulated in PMA-differentiated THP-1 cells by the addition of nigericin, and cytokines were measured in the […] after 3 hours. As discussed above, activation of the NLRP3 inflammasome requires both an NF-kB-dependent priming step and the addition of a NLRP3 activator.
(In general: TR-FRET usually uses a lanthanide donor and a delayed reading to cut background.)

As to `CC(C)c1nn(CC(=O)Nc2ccc(F)nc2)c(=O)c2cc3sc(Cl)cc3n12` [Ex 14, 2-(2-Chloro-5-isopropyl-8-oxothieno[2′,3′:4,5]pyrrolo[1,2-d][1,2,4]triazin-7(8H)-yl)-N-(6-fluoropyridin-3-yl)acetamide], the IC50 (usually the concentration at which inhibition is half-maximal) worked out at 90.6 nM.
To `CC(C)c1nn(CC(=O)N[C@@H]2CCCN(CCOC(F)(F)F)C2)c(=O)c2cc3sc(Cl)cc3n12` [Ex 78, (R)-2-(2-Chloro-5-isopropyl-8-oxothieno[2′,3′:4,5]pyrrolo[1,2-d][1,2,4]triazin-7(8H)-yl)-N-(1-(2-(trifluoromethoxy)ethyl)piperidin-3-yl)acetamide] belongs 71.4 nM.
The molecule `CC(C)c1nn(CC(=O)N[C@@H]2CCN(C)C2)c(=O)c2cc3sc(Cl)cc3n12` [Ex 104, (R)-2-(2-Chloro-5-isopropyl-8-oxothieno[2′,3′:4,5]pyrrolo[1,2-d][1,2,4]triazin-7(8H)-yl)-N-(1-methylpyrrolidin-3-yl)acetamide] showed a 50% inhibitory concentration (IC50) of 254 nM.
To `Cc1nc2c(cc3c(=O)n(CC(=O)N[C@@H]4CCCN(C)C4)nc(C(C)C)n32)s1` [Ex 92, (R)-2-(5-Isopropyl-2-methyl-8-oxothiazolo[5′,4′:4,5]pyrrolo[1,2-d][1,2,4]triazin-7(8H)-yl)-N-(1-methylpiperidin-3-yl)acetamide] belongs 65.2 nM.
To `CC(C)c1nn(CC(=O)N[C@]2(C)C[C@@H](O)C2)c(=O)c2cc3sc(Cl)cc3n12` [Ex 23, 2-(2-Chloro-5-isopropyl-8-oxothieno[2′,3′:4,5]pyrrolo[1,2-d][1,2,4]triazin-7(8H)-yl)-N-((1r,3r)-3-hydroxy-1-methylcyclobutyl)acetamide] belongs 452 nM; to `CC(C)c1nn(CC(=O)N[C@@H]2CCC(=O)N(C)C2)c(=O)c2cc3scnc3n12` [Ex 97, (R)-2-(5-Isopropyl-8-oxothiazolo[5′,4′:4,5]pyrrolo[1,2-d][1,2,4]triazin-7(8H)-yl)-N-(1-methyl-6-oxopiperidin-3-yl)acetamide], 18.3 nM; to `CC(C)c1nn(CC(=O)N[C@H]2C[C@](O)(C(F)(F)F)C2)c(=O)c2cc3sc(Cl)cc3n12` [Ex 74, 2-(2-Chloro-5-isopropyl-8-oxothieno[2′,3′:4,5]pyrrolo[1,2-d][1,2,4]triazin-7(8H)-yl)-N-((1s,3s)-3-hydroxy-3-(trifluoromethyl)cyclobutyl)acetamide], 4.4 nM.
`CC(C)c1nn(CC(=O)NC[C@@H](C)O)c(=O)c2cc3scnc3n12` [Ex 95, (R)-N-(2-Hydroxypropyl)-2-(5-isopropyl-8-oxothiazolo[5′,4′:4,5]pyrrolo[1,2-d][1,2,4]triazin-7(8H)-yl)acetamide] had an IC50 of 246 nM.
`CC(C)c1nn(CC(=O)Nc2ncncc2Cl)c(=O)c2cc3sc(Cl)cc3n12` [Ex 16, 2-(2-Chloro-5-isopropyl-8-oxothieno[2′,3′:4,5]pyrrolo[1,2-d][1,2,4]triazin-7(8H)-yl)-N-(5-chloropyrimidin-4-yl)acetamide] had an IC50 of 57.3 nM.
The molecule `CC(C)c1nn(CC(=O)Nc2ccnn2C)c(=O)c2cc3sc(Cl)cc3n12` [Ex 57, 2-(2-Chloro-5-isopropyl-8-oxothieno[2′,3′:4,5]pyrrolo[1,2-d][1,2,4]triazin-7(8H)-yl)-N-(1-methyl-1H-pyrazol-5-yl)acetamide] displayed a concentration for half-maximal inhibition (IC50) of 61.5 nM.
To `CC(C)c1nn(CC(=O)NCCC(C)(C)O)c(=O)c2cc3scnc3n12` [Ex 94, N-(3-Hydroxy-3-methylbutyl)-2-(5-isopropyl-8-oxothiazolo[5′,4′:4,5]pyrrolo[1,2-d][1,2,4]triazin-7(8H)-yl)acetamide] belongs 64.9 nM; to `CC(C)(O)c1nn(CC(=O)N[C@@H]2CCCN(C3CC3)C2)c(=O)c2cc3sc(Cl)cc3n12` [Ex 126, (R)-2-(2-Chloro-5-(2-hydroxypropan-2-yl)-8-oxothieno[2′,3′:4,5]pyrrolo[1,2-d][1,2,4]triazin-7(8H)-yl)-N-(1-cyclopropylpiperidin-3-yl)acetamide], 0.6 nM.
As for `CC(C)c1nn(CC(=O)N[C@H]2C[C@](C)(O)C2)c(=O)c2cc3sc(F)cc3n12` [Ex 86, 2-(2-Fluoro-5-isopropyl-8-oxothieno[2′,3′:4,5]pyrrolo[1,2-d][1,2,4]triazin-7(8H)-yl)-N-((1r,3r)-3-hydroxy-3-methylcyclobutyl)acetamide], the concentration for half-maximal inhibition (IC50) was 41.2 nM.
Molecule `CC(C)c1nn(CC(=O)N[C@H]2C[C@](C)(O)C2)c(=O)c2cc3sc(Cl)cc3n12` [Ex 71, 2-(2-Chloro-5-isopropyl-8-oxothieno[2′,3′:4,5]pyrrolo[1,2-d][1,2,4]triazin-7(8H)-yl)-N-((1r,3r)-3-hydroxy-3-methylcyclobutyl)acetamide] displayed an IC50 of 15.9 nM.
`CC(C)c1nn(CC(=O)N[C@H]2CC[C@H](C(=O)O)CC2)c(=O)c2cc3sc(F)cc3n12` [Ex 120, (1r,4r)-4-(2-(2-Fluoro-5-isopropyl-8-oxothieno[2′,3′:4,5]pyrrolo[1,2-d][1,2,4]triazin-7(8H)-yl)acetamido)cyclohexane-1-carboxylic acid] gave an IC50 of 17.2 nM.
In turn, `CC(C)c1nn(CC(=O)NC23CC(C(=O)O)(C2)C3)c(=O)c2cc3sc(Cl)cc3n12` [Ex 123, 3-(2-(2-Chloro-5-isopropyl-8-oxothieno[2′,3′:4,5]pyrrolo[1,2-d][1,2,4]triazin-7(8H)-yl)acetamido)bicyclo[1.1.1]pentane-1-carboxylic acid] gave an IC50 of 2080 nM.
In turn, `CC(C)c1nn(CC(=O)Nc2ncncc2F)c(=O)c2cc3sc(Cl)cc3n12` [Ex 15, 2-(2-Chloro-5-isopropyl-8-oxothieno[2′,3′:4,5]pyrrolo[1,2-d][1,2,4]triazin-7(8H)-yl)-N-(5-fluoropyrimidin-4-yl)acetamide] registered an IC50 of 5.4 nM.
Consider `CC(C)(O)CCNC(=O)Cn1nc(C(C)(C)O)n2c(cc3sc(Cl)cc32)c1=O` [Ex 80], for which half-maximal inhibition (IC50) was put at 60.7 nM.
As to `CC(C)c1nn(CC(=O)NCCC2(O)CC2)c(=O)c2cc3sc(Cl)cc3n12` [Ex 110, 2-(2-Chloro-5-isopropyl-8-oxothieno[2′,3′:4,5]pyrrolo[1,2-d][1,2,4]triazin-7(8H)-yl)-N-(2-(1-hydroxycyclopropyl)ethyl)acetamide], half-maximal inhibition (IC50) required 115 nM.
Molecule `Cc1n[nH]c2cc(NC(=O)Cn3nc(C(C)(C)O)n4c(cc5sc(Cl)cc54)c3=O)ccc12` [Ex 66, 2-(2-Chloro-5-(2-hydroxypropan-2-yl)-8-oxothieno[2′,3′:4,5]pyrrolo[1,2-d][1,2,4]triazin-7(8H)-yl)-N-(3-methyl-1H-indazol-6-yl)acetamide] had an IC50 of 7.8 nM.
Regarding `CC(C)c1nn(CC(=O)N[C@H]2C[C@@](C)(O)C2)c(=O)c2cc3scnc3n12` [Ex 93, N-((1s,3s)-3-Hydroxy-3-methylcyclobutyl)-2-(5-isopropyl-8-oxothiazolo[5′,4′:4,5]pyrrolo[1,2-d][1,2,4]triazin-7(8H)-yl)acetamide], the IC50 turned out to be 0.8 nM.
To `CC(C)c1nn(CC(=O)NC[C@@H](C)O)c(=O)c2cc3sc(F)cc3n12` [Ex 85, (R)-2-(2-Fluoro-5-isopropyl-8-oxothieno[2′,3′:4,5]pyrrolo[1,2-d][1,2,4]triazin-7(8H)-yl)-N-(2-hydroxypropyl)acetamide] belongs 130 nM; to `CC(C)c1nn(CC(=O)N[C@H]2CCNC2)c(=O)c2cc3sc(Cl)cc3n12` [Ex 102, (S)-2-(2-Chloro-5-isopropyl-8-oxothieno[2′,3′:4,5]pyrrolo[1,2-d][1,2,4]triazin-7(8H)-yl)-N-(pyrrolidin-3-yl)acetamide], 886 nM.
`CC(C)c1nn(CC(=O)Nc2cncs2)c(=O)c2cc3sc(Cl)cc3n12` [Ex 12, 2-(2-Chloro-5-isopropyl-8-oxothieno[2′,3′:4,5]pyrrolo[1,2-d][1,2,4]triazin-7(8H)-yl)-N-(thiazol-5-yl)acetamide] showed an IC50 of 23.7 nM.
On to `CC(C)(O)c1nn(CC(=O)N[C@@H]2CCNC2)c(=O)c2cc3sc(Cl)cc3n12` [Ex 106, (R)-2-(2-Chloro-5-(2-hydroxypropan-2-yl)-8-oxothieno[2′,3′:4,5]pyrrolo[1,2-d][1,2,4]triazin-7(8H)-yl)-N-(pyrrolidin-3-yl)acetamide], for which the midpoint of inhibition, the IC50, lay at 2180 nM.
In the case of `CC(C)c1nn(CC(=O)Nc2nccs2)c(=O)c2cc3sc(Cl)cc3n12` [Ex 11, 2-(2-Chloro-5-isopropyl-8-oxothieno[2′,3′:4,5]pyrrolo[1,2-d][1,2,4]triazin-7(8H)-yl)-N-(thiazol-2-yl)acetamide], half-maximal inhibition (IC50) was put at 62.5 nM.
`CC(C)(O)c1nn(CC(=O)N[C@H]2CC[C@H](C(=O)O)CC2)c(=O)c2cc3sc(Cl)cc3n12` [Ex 122, (1r,4r)-4-(2-(2-Chloro-5-(2-hydroxypropan-2-yl)-8-oxothieno[2′,3′:4,5]pyrrolo[1,2-d][1,2,4]triazin-7(8H)-yl)acetamido)cyclohexane-1-carboxylic acid] gave an IC50 of 267 nM.
In the case of `CC(C)(O)c1nn(CC(=O)Nc2ccc3cc[nH]c3c2)c(=O)c2cc3sc(Cl)cc3n12` [Ex 67, 2-(2-Chloro-5-(2-hydroxypropan-2-yl)-8-oxothieno[2′,3′:4,5]pyrrolo[1,2-d][1,2,4]triazin-7(8H)-yl)-N-(1H-indol-6-yl)acetamide], the IC50 was found to be 212 nM.
Molecule `CC(C)c1nn(CC(=O)NC2CCCC2)c(=O)c2cc3scnc3n12` [Ex 98, N-Cyclopentyl-2-(5-isopropyl-8-oxothiazolo[5′,4′:4,5]pyrrolo[1,2-d][1,2,4]triazin-7(8H)-yl)acetamide] displayed an IC50 of 271 nM.
To `CC(C)c1nn(CC(=O)NC2CC3(CC(O)C3)C2)c(=O)c2cc3sc(Cl)cc3n12` (stereo not drawn) [Ex 73, 2-(2-Chloro-5-isopropyl-8-oxothieno[2′,3′:4,5]pyrrolo[1,2-d][1,2,4]triazin-7(8H)-yl)-N-(6-hydroxyspiro[3.3]heptan-2-yl)acetamide] belongs 14.5 nM.
